Reference: ChEMBL document CHEMBL3085630, “Thienopyrimidine bisphosphonate (ThPBP) inhibitors of the human farnesyl pyrophosphate synthase: optimization and characterization of the mode of inhibition” (J Med Chem, 2013)
Activity calls are given as the source filed them. No cut-off for these calls is given here.

Legend:
[1] = molecular target: T1, Farnesyl pyrophosphate synthase (Homo sapiens) (UniProt P14324); assay: Inhibition of human recombinant FPPS using GPP/[3H]IPP as substrate at 100 nM incubated for 10 mins prior to substrate addition measured after 8 mins by scintillation counting analysis
T1 sequence (whole entry): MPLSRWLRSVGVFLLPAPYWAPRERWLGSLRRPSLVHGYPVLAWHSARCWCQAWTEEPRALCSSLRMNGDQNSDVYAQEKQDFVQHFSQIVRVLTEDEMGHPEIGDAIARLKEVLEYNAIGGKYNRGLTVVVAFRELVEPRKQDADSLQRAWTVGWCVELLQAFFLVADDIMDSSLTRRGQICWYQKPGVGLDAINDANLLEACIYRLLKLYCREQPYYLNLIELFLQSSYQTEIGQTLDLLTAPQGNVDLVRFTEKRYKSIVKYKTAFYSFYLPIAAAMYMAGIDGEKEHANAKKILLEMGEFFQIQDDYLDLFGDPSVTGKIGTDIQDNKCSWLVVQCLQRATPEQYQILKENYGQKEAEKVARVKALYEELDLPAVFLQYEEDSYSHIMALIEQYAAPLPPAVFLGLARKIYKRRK

Hydroxyapatite = assay: Binding affinity to bone mineral hydroxyapatite at 50 uM after 5 mins by NMR-spectroscopic analysis
[2] = molecular target: T2, Farnesyl pyrophosphate synthase (Homo sapiens, UniProt P14324); assay: Inhibition of human recombinant FPPS using GPP/[3H]IPP as substrate incubated for 10 mins prior to substrate addition by scintillation counting analysis
T2 sequence (P14324 whole entry): T1 sequence (whole entry)

[3] = molecular target: T2, Farnesyl pyrophosphate synthase; assay: Inhibition of human recombinant FPPS using GPP/[3H]IPP as substrate incubated for 10 mins prior to substrate addition measured after 8 mins by scintillation counting analysis

| inhibition [1] | Activity (Hydroxyapatite) | SMILES | other results |
| --- | --- | --- | --- |
| 30% |  | O=P(O)(O)C(Nc1ncnc2sc(-c3cccc(C(F)(F)F)c3)cc12)P(=O)(O)O |  |
|  | Active | O=P(O)(O)C(O)(Cc1cccnc1)P(=O)(O)O |  |
| 73% | Active | O=P(O)(O)C(Nc1ncnc2sc(-c3ccc(C(F)(F)F)cc3)cc12)P(=O)(O)O |  |
| < 20% |  | O=P(O)(O)C(Nc1ncnc2sc(-c3cccc4[nH]ncc34)cc12)P(=O)(O)O |  |

Second part, the molecule before the results:

| SMILES | inhibition [1] | Activity (Hydroxyapatite) | other results |
| --- | --- | --- | --- |
| O=P(O)(O)C(Nc1ncnc2sc(-c3ccc4[nH]ncc4c3)cc12)P(=O)(O)O | < 20% |  |  |
| O=P(O)(O)C(Nc1ncnc2sc(-c3ccc(OC4CC4)cc3)cc12)P(=O)(O)O |  | Active |  |
| COc1ccc(-c2cc3c(NC(P(=O)(O)O)P(=O)(O)O)ncnc3s2)cc1 |  |  | IC50 [2]: 440 nM |
| O=P(O)(O)C(Nc1ncnc2sc(-c3ccc(C4CC4)cc3)cc12)P(=O)(O)O |  | Active | IC50 [2]: 115 nM; IC50 [3]: 39 nM |
| CC(C)Oc1ccc(-c2cc3c(NC(P(=O)(O)O)P(=O)(O)O)ncnc3s2)cc1 |  |  | IC50 [3]: 200 nM |
| O=P(O)(O)C(Nc1ncnc2sc(-c3ccc(C4CC4(F)F)cc3)cc12)P(=O)(O)O (centres undefined) |  |  | IC50 [2]: 140 nM |
| Cc1noc(C)c1-c1cc2c(NC(P(=O)(O)O)P(=O)(O)O)ncnc2s1 | < 20% |  |  |
